Ends that are not written are not given here.
Tests used:
[1] = system: P. aeruginosa strains (7); assay: microbe, parasite or virus in culture; assay type: cell-based, Pseudomonas aeruginosa; conditions: agent alone; range over strains
Procedure: (§1) The bacterial inoculum was established by the dilution method from actively-growing cultures in Mueller-Hinton broth, standardized with 0.5 McFarland turbidity standard as described in the CLSI method M26-A.
(§2) To determine the prevention of biofilm formation, both the bacterial inoculum and the antimicrobial agents were added simultaneously to the plates. The plates were incubated at 37° C. for 24 h and the optical density was read at 625 nm on a microtitre plate reader (BioTek Powerwave XS, Winooski, USA). The MIC was obtained as the lowest concentration of antimicrobial showing total inhibition of bacterial growth.
(§3) The FIC corresponds to an interaction coefficient indicating whether the combination of antimicrobial agents is synergistic, additive, antagonist or neutral. The FIC is determined by comparing the activity of an agent in combination (MIC of agent A+agent B) with the activity of the agent alone (MIC of agent A or agent B) as follow (Singh et al., 2000):
(§4) FIC=MICA[combination]/MICA[alone]+MICB[combination]/MICB[alone]
(§5) Additive combinations of two antimicrobial agents are indicated by a FIC index of 1, whereas a FIC index <1 indicates synergistic combinations. Neutral combinations would give a FIC between 1 and 4, a FIC index higher than 4 indicates antagonist effects between the two antimicrobial agents.
(§6) Summary of the activity of the tested antimicrobial agents against the Gram-negative P. aeruginosa strains and the Gram-positive Staphylococcus spp. The number into brackets indicates the maximum number of strains tested. MIC: minimum inhibition concentration; MBEC: minimum biofilm eradication concentration; FIC: fractional inhibitory concentration.

Staphylococcus spp (4) = assay: microbe, parasite or virus in culture; assay type: cell-based; conditions: agent alone; range over strains
Procedure: as §1, §2, §3, §4, §5, §6

[2] = system: P. aeruginosa strains (7) biofilm cells; assay type: cell-based, Pseudomonas aeruginosa; conditions: agent alone
Procedure: (§7) The FIC was also calculated to assess the interaction of two antimicrobial agents in combination against bacterial biofilms. The same formulae applied, using MBEC instead of MIC.
(§8) A total volume of 100 μl bacterial inoculum in Mueller-Hinton was added to each well of 96-well plates (challenge plates) and the plates were incubated at 37° C. for 24 h on a gyrorotary shaking platform (Grant-bio PS-3D, Shepreth, England) at 24 rpm to allow for biofilm formation.
(§9) The challenge plates were then rinsed once with sterile PBS (lx) and two-fold serial dilutions of antimicrobial agents in Mueller-Hinton were added to the challenge plates. The challenge plates were incubated at 37° C. for 24 h on a gyrorotary shaking platform (Grant-bio PS-3D, Shepreth, England) at 24 rpm.
(§10) The supernatants from each of the challenge plates were transferred into fresh plates and the optical density was measured at 625 nm on a microtitre plate reader (BioTek Powerwave XS, Winooski, USA). The MBEC was obtained by the lowest concentration of antimicrobial showing no bacterial growth.
as §6

[3] = system: Staphylococcus spp (4) biofilm cells; assay type: cell-based
Procedure: as §7, §8, §9, §10, §6

[4] = system: P. aeruginosa strains (7) persister cells; assay: Persister cells in biofilms (live/dead staining), summary over strains; assay type: cell-based, Pseudomonas aeruginosa; conditions: agent alone
Procedure: (§11) Following transfer of the supernatant from the challenge plates, the biofilms were rinsed once with sterile PBS (lx) and 100 μl of BacLight live/dead fluorescent staining solution (Invitrogen, Paisley, UK) containing 4 μM SYTO9 and 20 μM propidium iodide (PI) in sterile PBS (lx) were added to the wells of the challenge plates. The plates were incubated at room temperature in the dark for 15 min and the fluorescence was read at 485(ex)/528(em) and 485(ex)/645(em) for SYTO9 and PI fluorescence, respectively on a fluorescence microtitre plate reader (BioTek Synergy HT, Winooski, USA) with the sensitivity set at 50 and bottom optics position was selected. Direct observation of the biofilms with an Axiovert 40 fluorescence microscope (Zeiss, Gottingen, Germany) allowed identifying the presence of live and dead bacteria and pictures of the biofilms were taken at 100 to 400-fold magnification.
(§12) The relative viability of persister cells was determined by the live/dead fluorescence measurements ratio and microscopic observations were used to confirm the presence or absence of live cells.
as §6

[5] = system: P. aeruginosa ATCC BAA-47 (PAO1) biofilm cells; assay: MBEC against 24 h-old biofilm; assay type: cell-based, Pseudomonas aeruginosa; conditions: agent alone; FIG. 5
Procedure: as §7, §8, §9, §10
The assessment of the activity of NP108 and cysteamine against bacterial biofilms was carried out with 24 h-old biofilms and the activity of both compounds in combination was also determined. The activity of the antimicrobial agents against bacterial biofilms was determined by their activity against the biofilm cells and against the persister cells.

[6] = system: P. aeruginosa ATCC BAA-47 (PAO1) persister cells; assay: Relative viability of persister cells (SYTO9/PI live/dead fluorescence, microscopy); assay type: cell-based, Pseudomonas aeruginosa; conditions: agent alone; FIG. 6, FIG. 8
Procedure: as §11, §12
The activity of NP108 and cysteamine against the persister cells was assessed using a fluorescence staining method to determine the relative viability of the cells. The nucleic acid-binding fluorescent molecules used were SYTO9 and PI, which penetrate all bacterial cells (green fluorescence) and membrane-disrupted cells (red fluorescence), respectively.

S. epidermidis ATCC12228 [7] = assay type: cell-based, Staphylococcus epidermidis; conditions: ATCC12228, 24 h
Procedure: as §1, §2

S. aureus ATCC25923 [8] = assay type: cell-based, Staphylococcus aureus; conditions: ATCC25923, 24 h
Procedure: as §1, §2

[9] = system: S. aureus DSM 11729 (MRSA); assay: microbe, parasite or virus in culture; assay type: cell-based, Staphylococcus aureus; conditions: DSM 11729, 24 h; for MIC pH5.5, 320 mM NaCl, S. aureus 11729 / MIC pH5.5, S. aureus 11729: pH 5.5
Procedure: as §1
as §2, with “growth. […]” for “growth.”
(§13) FIC=MICA[combination]/MICA[alone]+MICB[combination]/MICB[alone] […]
(§14) In order to assess for the prevention of biofilm formation by both Gram-positive and Gram-negative bacteria, the bacterial inoculum and antimicrobial agents were added simultaneously in the plates. The range of concentrations of antimicrobial agents was 0-500 μg/ml NP108 and 0-320 μg/ml cysteamine against the Gram-negative bacteria P. aeruginosa ATCC BAA-47 and 0-1000 μg/ml NP108 and 0-320 μg/ml cysteamine against the Gram-positive MRSA.

P. aeruginosa DSMZ1128 [10] = assay type: cell-based, Pseudomonas aeruginosa; conditions: DSMZ1128, 24 h
Procedure: as §1, §2

P. aeruginosa DSMZ1299 [11] = assay type: cell-based, Pseudomonas aeruginosa; conditions: for MIC at pH 7, P. aeruginosa D5MZ1299: DSMZ1299, 24 h
Procedure: as §1, §2

[12] = system: P. aeruginosa ATCC BAA-47; assay: microbe, parasite or virus in culture; assay type: cell-based, Pseudomonas aeruginosa; conditions: ATCC BAA-47, 24 h; for MIC pH5.5, 320 mM NaCl, P. aeruginosa ATCCBAA-47 / MIC pH5.5, P. aeruginosa ATCCBAA-47: pH 5.5
Procedure: as §1
as §2, with “growth. […]” for “growth.”
as §13, §14

S. epidermidis ATCC12228 [13] = conditions: ATCC12228, pH 7
S. aureus ATCC25923 [14] = conditions: ATCC25923, pH 7
[15] = system: S. aureus DSM 11729 (MRSA); conditions: for MBC at pH5.5, S. aureus 11729 / MBC pH5.5, 320 mM NaCl, S. aureus 11729: DSM 11729, pH 5.5; for MBC following MIC at pH 7, S. aureus DSMZ11729: DSM 11729, pH 7
P. aeruginosa DSMZ1128 [16] = conditions: DSMZ1128, pH 7
P. aeruginosa DSMZ1299 [17] = conditions: DSMZ1299, pH 7
[18] = system: P. aeruginosa ATCC BAA-47; conditions: for MBC at pH5.5, P. aeruginosa ATCCBAA-47 / MBC pH5.5, 320 mM NaCl, P. aeruginosa ATCCBAA-47: ATCC BAA-47, pH 5.5; for MBC following MIC at pH 7, P. aeruginosa ATCCBAA-47: ATCC BAA-47, pH 7

| Compound | MIC at pH 7, S. epidermidis ATCC12228 (S. epidermidis ATCC12228 [7]) | MIC at pH 7, S. aureus ATCC25923 (S. aureus ATCC25923 [8]) | MIC pH5.5, 320 mM NaCl, S. aureus 11729 [9] | MIC pH5.5, S. aureus 11729 [9] | MIC at pH 7, S. aureus DSMZ11729 [9] | MIC at pH 7, P. aeruginosa DSMZ1128 (P. aeruginosa DSMZ1128 [10]) | MIC at pH 7, P. aeruginosa D5MZ1299 (P. aeruginosa DSMZ1299 [11]) | MIC pH5.5, 320 mM NaCl, P. aeruginosa ATCCBAA-47 [12] | MIC pH5.5, P. aeruginosa ATCCBAA-47 [12] | MIC at pH 7, P. aeruginosa ATCCBAA-47 [12] | MBC following MIC at pH 7, S. epidermidis ATCC12228 (S. epidermidis ATCC12228 [13]) | MBC following MIC at pH 7, S. aureus ATCC25923 (S. aureus ATCC25923 [14]) | MBC at pH5.5, S. aureus 11729 [15] | MBC pH5.5, 320 mM NaCl, S. aureus 11729 [15] | MBC following MIC at pH 7, S. aureus DSMZ11729 [15] | MBC following MIC at pH 7, P. aeruginosa DSMZ1128 (P. aeruginosa DSMZ1128 [16]) | MBC following MIC at pH 7, P. aeruginosa DSMZ1299 (P. aeruginosa DSMZ1299 [17]) | MBC at pH5.5, P. aeruginosa ATCCBAA-47 [18] | MBC pH5.5, 320 mM NaCl, P. aeruginosa ATCCBAA-47 [18] | MBC following MIC at pH 7, P. aeruginosa ATCCBAA-47 [18] | also measured |
| --- | --- | --- | --- | --- | --- | --- | --- | --- | --- | --- | --- | --- | --- | --- | --- | --- | --- | --- | --- | --- | --- |
| N=C(N)NCCC[C@@H](N)C(=O)N[C@H](CCCNC(=N)N)C(=O)N[C@H](CCCNC(=N)N)C(=O)N[C@H](CCCNC(=N)N)C(=O)N[C@H](CCCNC(=N)N)C(=O)N[C@H](CCCNC(=N)N)C(=O)N[C@H](CCCNC(=N)N)C(=O)N[C@H](CCCNC(=N)N)C(=O)N[C@H](CCCNC(=N)N)C(=O)N[C@H](CCCNC(=N)N)C(=O)N[C@H](CCCNC(=N)N)C(=O)N[C@H](CCCNC(=N)N)C(=O)N[C@H](CCCNC(=N)N)C(=O)O [NP339, dRdRdRdRdRdRdRdRdRdRdRdRdR] |  |  |  |  |  |  |  |  |  |  |  |  |  |  |  |  |  |  |  |  | MIC, P. aeruginosa strains (7) [1]: 62.5 µg/mL; MIC, Staphylococcus spp (4) (Staphylococcus spp (4)): 4 to 128 µg/mL; MBEC, P. aeruginosa strains (7) [2]: >5,000 μg/ml; MBEC against biofilms of 3 Staphylococcus species ([3]; FIG. 5, range over 3 species): 156 to 625 µg/mL; MBEC, Staphylococcus spp (4) ([3]; agent alone, biofilm cells): 156 to 625 µg/mL; Persisters, active concentration, P. aeruginosa strains (7) [4]: 625 µg/mL; MBEC, P. aeruginosa BAA-47 (PAO1); highest dose tested not sufficient to inhibit 100% of the biofilm cells [5]: > 5 mg/mL; concentration that inhibits the viability of P. aeruginosa BAA-47 (PAO1) persister cells [6]: 625 µg/mL |
| HHPRRKPRRPKRRHH [NP441, HHPRRKPRRPKRRHH] | >500 μg/ml | >500 μg/ml | >500 μg/ml | >500 μg/ml | >500 μg/ml | >500 μg/ml | >500 μg/ml | >500 μg/ml | >500 μg/ml | >500 μg/ml | >500 μg/ml | >500 μg/ml | >500 μg/ml | >500 μg/ml | >500 μg/ml | >500 μg/ml | >500 μg/ml | >500 μg/ml | >500 μg/ml | >500 μg/ml | Exp#3, P. aeruginosa DSMZ1299 (quantity not clearly headed) (P. aeruginosa DSMZ1299 [11]; Exp#3): >500 µg/mL |
| KKFPWRLRLRYGRR [NP445, KKFPWRLRLRYGRR] | <7.8 μg/ml | 500 μg/ml | >500 μg/ml | >500 μg/ml | 500 μg/ml | 62.5 μg/ml | 31.25 μg/ml | >500 μg/ml | >500 μg/ml | 31.25 μg/ml | 62.5 μg/ml | >500 μg/ml | >500 μg/ml | >500 μg/ml | >500 μg/ml | 250 μg/ml | 125 μg/ml | >500 μg/ml | >500 μg/ml | 250 μg/ml |  |
| RRRFRFFFRFRRR [NP432, RRRFRFFFRFRRR] | <7.8 μg/ml | 31.25 μg/ml | >500 μg/ml | >500 μg/ml | 62.5 μg/ml | 62.5 μg/ml | 15.6 μg/ml | 125 μg/ml | 125 μg/ml | 15.6 μg/ml | 16 μg/ml | 250 μg/ml | >500 μg/ml | >500 μg/ml | 500 μg/ml | 250 (2) μg/ml | 32 (2) μg/ml | 125 μg/ml | >500 μg/ml | 250 μg/ml |  |
